Measured values from US11466007B2, “Substituted lactams showing serotonin 5-HT receptor activity” (Sumitomo Pharma Co., Ltd., priority 2018, dated 2022).

Experiments:
[1] = Test 4: metabolic stability test in human hepatic microsome; assay type: in vitro ADME; settings: 0.1 mg/mL microsome, 0.1 μmol/L compound, NADPH, 37° C., 30 minutes
In short: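 Test compound at 0.1 μmol/L incubated 30 min at 37° C with human liver microsomes (0.1 mg/mL) and NADPH (3.2 mmol/L) in 25 mmol/L phosphate buffer, pH 7.4. Residual compound quantified by LC-MS; clearance (mL/min/mg protein) = −LN(residual ratio)/30/0.1.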

[2] = Test 11: hepatotoxic risk (dansyl glutathione (dGSH) trapping assay); assay type: in vitro ADME; settings: human hepatic microsome, 37° C. for 60 minutes, N.D. means below detection limit
Description: Test 11: Evaluation of Hepatotoxic Risk (Dansyl Glutathione (dGSH) Trapping Assay)
The present compound was metabolized in hepatic microsome, and reactive metabolite which reacts with dansyl glutathione (dGSH) was detected and quantified from the resulting metabolite. Measurement was carried out with a screening robot (Tecan) for metabolic reaction, and with a fluorescence detection UPLC system (Waters) for metabolite-dGSH binding concentration.
The present compound was dissolved in DMSO to prepare 10 mmol/L test compound solution. 7.6 mL of potassium phosphate buffer (500 mmol/L, pH 7.4), 1.9 mL of human hepatic microsome (Xenotech, 20 mg protein/mL), and 1.27 mL of pure water were mixed to prepare a microsome solution. To 3.78 mL of the microsome solution was added 0.67 mL of pure water to prepare a microsome (dGSH(−)) solution. To 6.48 mL of the microsome solution was added 1.14 mL of the dGSH solution (20 mmol/L) to prepare a microsome (dGSH(+)) solution. […]
Metabolite-dGSH binding concentration was measured by the following method, using a fluorescence detection UPLC system (Waters). […]
Fluorescence intensity was corrected with the composition of organic solvent at the time of elution because fluorescence intensity changes depending on the composition of organic solvent.

Metabolic stability in human hepatic microsome [1]: 0.039 mL/min/mg protein
Compound: O=C1c2ncccc2CCN1CCN1CCC(c2noc3ccccc23)CC1 [Example 22, 7-{2-[4-(1,2-Benzoisoxazol-3-yl)piperidin-1-yl]ethyl}-6,7-dihydro-1,7-naphthyridin-8(5H)-one]
Metabolite-dGSH binding concentration [2]: 0.089 µM
